From patent US20150065526A1, “OVERCOMING ACQUIRED RESISTANCE TO CHEMOTHERAPY TREATMENTS THROUGH SUPPRESSION OF STAT3” (EMORY UNIVERSITY, priority 2013, published 2015)

What was measured:
STAT3 = STAT3 (Homo sapiens, UniProt P40763); settings: cited from earlier work
[1] = tested on: Tu212 head and neck cancer xenografts; experiment: Tu212 head and neck cancer xenografts in mice; type: in vivo; settings: for Xenograft tumor growth, Tu212: erlotinib 40 mg/kg/d, niclosamide 20 mg/kg/d, two weeks
Procedure: Each group included 8 mice. Tumor volume was measured once every 2 days. After 14 days, the mice were sacrificed and the tumors were removed and analyzed. Representative tumor pictures were taken. B, Active caspase 3 and Ki 67 were analyzed in tumor tissues at the end of experiments by IHC staining and quantified. C, Expression levels of pEGFR, pSTAT3, Bcl2 and Bcl-XL in tumor tissues from various treatment groups were analyzed by Western blot.
First, head and neck cancer xenografts were generated using Tu212 cells.

[2] = tested on: STAT3 phosphorylation, Bcl2/Bcl-XL in Tu212 and Tu686 cells; experiment: Western blot of Tu212 and Tu686 head and neck cancer cells; type: cell-based; settings: erlotinib plus increasing concentrations of niclosamide, 48 h
[3] = tested on: HCC827 lung cancer xenografts; settings: niclosamide 20 mg/kg/d
Procedure: (§1) Each group includes 8 mice. Tumor volume was measured once every 2 days. After 32 days, the mice were sacrificed and the tumors were removed and analyzed. Representative tumor pictures were taken. B, active caspase-3 was analyzed in tumor tissues at the end of experiments by IHC staining and quantified as described in Materials and Methods. C, expression levels of pEGFR, pSTAT3, Bcl2, and Bcl-XL from tumor tissues in various treatment groups were analyzed by Western blot analysis.
(§2) The control group was treated with 0.5% DMSO vehicle.

[4] = tested on: HCC827/ER lung cancer xenografts; settings: niclosamide 20 mg/kg/d
Procedure: as §1, §2

[5] = tested on: PTPMeg2, pSTAT3, Bcl2, Bcl-XL, JAK2, c-Src in HCC827 cells; experiment: Western blot of HCC827 cells treated with erlotinib; type: cell-based, human

STAT3, sequence (P40763 whole entry): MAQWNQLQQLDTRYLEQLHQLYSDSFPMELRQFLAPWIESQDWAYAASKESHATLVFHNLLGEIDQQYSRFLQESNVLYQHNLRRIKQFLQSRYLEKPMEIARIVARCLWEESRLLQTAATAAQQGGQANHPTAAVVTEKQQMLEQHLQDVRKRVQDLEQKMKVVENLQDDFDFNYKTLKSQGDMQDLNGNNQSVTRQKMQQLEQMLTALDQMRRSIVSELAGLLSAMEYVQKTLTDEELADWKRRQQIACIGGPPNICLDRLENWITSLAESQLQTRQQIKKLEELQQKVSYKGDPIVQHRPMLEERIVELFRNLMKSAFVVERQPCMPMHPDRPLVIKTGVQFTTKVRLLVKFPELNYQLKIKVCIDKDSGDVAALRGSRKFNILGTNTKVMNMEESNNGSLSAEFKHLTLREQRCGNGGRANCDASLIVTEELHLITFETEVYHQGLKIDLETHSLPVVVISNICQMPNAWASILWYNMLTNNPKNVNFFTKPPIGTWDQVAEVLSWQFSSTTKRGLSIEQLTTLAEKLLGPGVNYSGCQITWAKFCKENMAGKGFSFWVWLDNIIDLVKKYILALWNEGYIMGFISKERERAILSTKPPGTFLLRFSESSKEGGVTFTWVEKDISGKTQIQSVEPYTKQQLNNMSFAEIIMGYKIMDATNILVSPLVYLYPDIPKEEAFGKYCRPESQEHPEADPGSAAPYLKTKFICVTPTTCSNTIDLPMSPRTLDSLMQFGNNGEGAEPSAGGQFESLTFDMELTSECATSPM

| SMILES | Activation of upstream proteins JAK2 and Src (STAT3) | STAT3 Tyr705 phosphorylation and transcriptional activity (STAT3) | Xenograft tumor growth, Tu212 [1] | Erlotinib-stimulated STAT3 phosphorylation, Bcl2 and Bcl-XL in tumor tissue lysates, Tu212 ([1]; three mice in each treatment group) | Erlotinib-induced STAT3 phosphorylation and Bcl2/Bcl-XL (Western blot) [2] | STAT3 phosphorylation, Bcl2 and Bcl-XL in tumor lysates (Western blot), HCC827 [3] | STAT3 phosphorylation, Bcl2 and Bcl-XL in tumor lysates (Western blot), HCC827/ER [4] | JAK2 and c-Src phosphorylation [5] | PTPMeg2 expression [5] | STAT3/Bcl2/Bcl-XL pathway status [5] | Tumor volume, HCC827/ER xenografts ([4]; erlotinib 40 mg/kg/d, 32 days) |
| --- | --- | --- | --- | --- | --- | --- | --- | --- | --- | --- | --- |
| O=C(Nc1ccc([N+](=O)[O-])cc1Cl)c1cc(Cl)ccc1O [niclosamide] | no obvious inhibitory effect | can inhibit Tyr705 site phosphorylation as well as transcriptional activity of STAT3 | modest efficacy | blocks erlotinib-stimulated STAT3 phosphorylation leading to decreased Bcl2 and Bcl-XL levels | inhibited erlotinib-induced STAT3 phosphorylation and downregulated Bcl2/Bcl-XL in a dose-dependent manner | blocks STAT3 phosphorylation in association with reduced Bcl2 and Bcl-XL | blocks STAT3 phosphorylation in association with reduced Bcl2 and Bcl-XL |  |  |  |  |
| C#Cc1cccc(Nc2ncnc3cc(OCCOC)c(OCCOC)cc23)c1 [erlotinib, N-(3-ethynylphenyl)-6,7-bis(2-methoxyethoxy)quinazolin-4-amine] |  |  | modest efficacy |  |  |  |  | inhibited JAK2 and c-Src phosphorylation | downregulates PTPMeg2 | activation of the STAT3/Bcl2/Bcl-XL pathway | tumor volumes comparable with those in the vehicle-treated control group |
